According to EP4717691A1, “USE OF BMPR1B INHIBITOR IN INDUCED DEVELOPMENT, AND INDUCTION CULTURE MEDIUM” (Iregene Therapeutics Co., Ltd, priority 2023, dated 2024):

Legend:
BMPR1B kinase = BMPR1B kinase (Homo sapiens, UniProt O00238); assay: Kinase activity screening (330 kinases, HTRF or ADP-Glo); type: biochemical; conditions: compound 2.5 mM, 25 nL in DMSO added to 5 µL reaction; Figure 1A
Method: (§1) A total of 330 kinase candidates (15-50 nM, 2.5 µL) were mixed with compound II-1 (2.5 mM, 25 nL, prepared in DMSO) and incubated at 25 °C for 10 minutes. Then, a mixture of kinase peptide substrate (0.2 mg/mL; supplier: GenScript) and ATP (10-60 µM; supplier: Promega; product number: V915B) was added (total 2.5 µL, prepared in assay buffer), and the reaction was carried out at 25 °C for 60-120 minutes. Finally, the reaction products were quantified using HTRF1 or ADP-Glo2 methods. During the kinase activity assay, the consumption of each substrate was kept below 10%, and each kinase assay was performed in duplicate.

BMPR2 = target: T1, BMPR2 (Homo sapiens, UniProt Q13873); assay: Kinase activity assay (HTRF or ADP-Glo); type: biochemical
T1 sequence (Q13873 27-1038): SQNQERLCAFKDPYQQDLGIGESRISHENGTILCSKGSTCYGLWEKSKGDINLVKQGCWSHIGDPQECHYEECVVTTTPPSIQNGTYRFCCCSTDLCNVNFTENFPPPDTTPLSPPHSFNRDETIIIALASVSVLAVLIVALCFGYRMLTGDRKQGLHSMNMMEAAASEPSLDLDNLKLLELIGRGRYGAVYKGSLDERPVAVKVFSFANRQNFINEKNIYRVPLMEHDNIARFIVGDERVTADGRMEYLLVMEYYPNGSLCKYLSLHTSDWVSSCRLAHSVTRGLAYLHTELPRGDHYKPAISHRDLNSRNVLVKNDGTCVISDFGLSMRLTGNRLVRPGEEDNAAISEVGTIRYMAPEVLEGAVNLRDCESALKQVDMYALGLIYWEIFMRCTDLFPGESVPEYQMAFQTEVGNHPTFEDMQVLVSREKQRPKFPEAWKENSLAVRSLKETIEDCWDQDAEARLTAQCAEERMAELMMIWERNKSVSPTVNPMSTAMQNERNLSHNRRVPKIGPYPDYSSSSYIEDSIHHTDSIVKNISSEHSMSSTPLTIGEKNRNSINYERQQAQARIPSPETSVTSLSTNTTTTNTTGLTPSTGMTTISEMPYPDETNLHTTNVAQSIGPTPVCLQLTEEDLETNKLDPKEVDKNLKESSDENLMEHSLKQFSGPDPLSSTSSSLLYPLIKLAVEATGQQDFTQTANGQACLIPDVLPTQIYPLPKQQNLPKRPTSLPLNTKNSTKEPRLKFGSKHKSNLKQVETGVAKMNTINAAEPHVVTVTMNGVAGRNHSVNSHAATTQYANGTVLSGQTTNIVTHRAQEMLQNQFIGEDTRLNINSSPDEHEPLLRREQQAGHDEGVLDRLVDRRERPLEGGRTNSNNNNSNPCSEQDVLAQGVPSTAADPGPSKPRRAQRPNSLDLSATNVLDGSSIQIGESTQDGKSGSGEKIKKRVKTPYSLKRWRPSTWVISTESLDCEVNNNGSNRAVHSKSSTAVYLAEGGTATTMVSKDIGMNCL
Method: as §1

TGFBR1 = target: T2, TGFBR1 (Homo sapiens, UniProt P36897); assay: Kinase activity assay (HTRF or ADP-Glo); type: biochemical
T2 sequence (P36897 34-503): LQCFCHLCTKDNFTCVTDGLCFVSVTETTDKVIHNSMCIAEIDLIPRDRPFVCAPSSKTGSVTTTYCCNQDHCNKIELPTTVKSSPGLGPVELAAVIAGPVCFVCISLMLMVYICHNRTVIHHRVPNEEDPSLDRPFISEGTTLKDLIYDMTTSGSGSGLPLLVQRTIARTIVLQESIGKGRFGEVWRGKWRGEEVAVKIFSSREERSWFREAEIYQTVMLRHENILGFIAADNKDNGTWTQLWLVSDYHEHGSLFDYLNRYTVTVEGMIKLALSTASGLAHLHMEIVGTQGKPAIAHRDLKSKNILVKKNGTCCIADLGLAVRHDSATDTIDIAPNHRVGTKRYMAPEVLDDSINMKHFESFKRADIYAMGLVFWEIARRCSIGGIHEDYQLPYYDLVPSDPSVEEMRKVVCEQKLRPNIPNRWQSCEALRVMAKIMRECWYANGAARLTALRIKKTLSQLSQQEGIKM
Method: as §1

SMAD2/3 = assay: Western blot of TGF signaling pathway in H1 cells; type: cell-based, human; conditions: 6 µL of 30 µM compound in 2 mL, within 24 hours of treatment, Figure 3
Method: (§2) The inhibitory effect of the pyrazolecarbonyl piperazinone compounds on the BMP signaling pathway was further validated by Western blot analysis. Commercial human pluripotent stem cell line H1 was seeded in a 6-well plate at 1.5 × 10^6 cells per well in 2 mL of culture medium. After one day of culture, the medium was replaced, and 6 µL of 30 µM pyrazolecarbonyl piperazinone compound II-1 was added. Cells were treated for 12, 24, and 36 hours, after which the cells were harvested and protein samples were prepared according to the instructions of a commercial kit (Beyotime Biotechnology; Cat. No. P0013). Western blot analysis was performed as described in the literature (H. Zhang et al., 2022; N. Zhang et al., 2021). […] Table 2. Antibody Information

SMAD1/5/8 = assay: Western blot of BMP signaling pathway in H1 cells; type: cell-based, human; conditions: 6 µL of 30 µM compound in 2 mL, within 24 hours of treatment, Figure 3
Method: as §2

pluripotent stem cell H9 = assay: Neural induction of H9 cells, marker gene mRNA by RNA-seq; type: cell-based, human; conditions: H9, increasing concentrations, day 7 and day 14, P < 0.05 t-test
Method: (§3) The induction medium comprises Dulbecco's Modified Eagle Medium (DMEM), Minimum Essential Medium Non-Essential Amino Acids (MEM NEAA, Cat. No. 11140076, Thermo Fisher), 4-Hydroxy-TEMPO (50 µM), D(+)-galactose (12.5 µg/mL), vitamin E (1 µg/mL), vitamin B12 (1.2 µM), vitamin C (64 mg/L), progesterone (6.3 ng/mL), 1,4-butanediamine (23 µg/mL), luteolin (60 µM), sodium chloride (0.5 g/L), […] (13.6 µg/L), insulin (22 µg/mL), recombinant human transferrin (100 ng/mL), and the BMPR1B inhibitor of the present invention (induction medium A uses BMPR1B inhibitor II-1; induction medium B uses BMPR1B inhibitor II-13).
(§4) Commercial human pluripotent stem cell lines H1, H9, and induced pluripotent stem cells (iPSCs) were used. The iPSCs were prepared according to the "reprogramming medium for the culture of reprogrammed iPSCs" using CD34+ cells (CN109628383A, Example 2). T25 culture flasks were coated with Matrigel (STEMCELL Technologies) and incubated at 37°C for at least one hour. Cells were seeded at 1 × 10^6 per T25 flask for expansion and passaging.
(§5) 6-well plates were coated with 50 µg/mL poly-L-lysine (SIGMA, Cat. No. P6407) and incubated at 37°C for at least 3 hours, followed by coating with 5 µg/mL laminin (SIGMA ALDRICH, Cat. No. 12020) and further incubation at 37°C for at least 3 hours. […]

H1 cells = assay: Neural induction of H1 cells, marker gene mRNA by RNA-seq; type: cell-based, human; conditions: H1, increasing concentrations, day 7 and day 14; Figure 5
Method: as §3, §4, §5

[1] = system: induced pluripotent stem cells (iPSCs); assay: Neural induction of iPSCs, marker gene mRNA by RNA-seq; type: cell-based, human; conditions: iPSCs vs untreated control, day 7 and day 14, dose-dependent; Figure 6
Method: as §3, §4
6-well plates were coated with 50 µg/mL poly-L-lysine (SIGMA, Cat. No. P6407) and incubated at 37°C for at least 3 hours, followed by coating with 5 µg/mL laminin (SIGMA ALDRICH, Cat. No. 12020) and further incubation at 37°C for at least 3 hours. When pluripotent stem cells reached 70% confluency, they were digested with EDTA at 37°C for 5 minutes, and digestion was terminated using DMEM. Cells were washed, centrifuged, and reseeded in T25 flasks at 2 × 10^5 cells per flask. Induction was carried out using the aforementioned induction media: H9 cells were induced with induction medium A, while H1 cells and iPSCs were induced with induction medium B. The medium was refreshed daily until day 14.
Samples were collected on day 7 and day 14 of induction. RNA was processed using the VAHTS Universal V8 RNA-seq Library Prep Kit for Illumina (Vazyme, NR605-01/02), and sequencing was performed on an Illumina platform. […]

[2] = at the same concentration as the screen
[3] = different concentrations, up to 12.5 µM, threefold serial dilution, Figure 1B, C

Sequence of BMPR1B kinase (O00238 14-502): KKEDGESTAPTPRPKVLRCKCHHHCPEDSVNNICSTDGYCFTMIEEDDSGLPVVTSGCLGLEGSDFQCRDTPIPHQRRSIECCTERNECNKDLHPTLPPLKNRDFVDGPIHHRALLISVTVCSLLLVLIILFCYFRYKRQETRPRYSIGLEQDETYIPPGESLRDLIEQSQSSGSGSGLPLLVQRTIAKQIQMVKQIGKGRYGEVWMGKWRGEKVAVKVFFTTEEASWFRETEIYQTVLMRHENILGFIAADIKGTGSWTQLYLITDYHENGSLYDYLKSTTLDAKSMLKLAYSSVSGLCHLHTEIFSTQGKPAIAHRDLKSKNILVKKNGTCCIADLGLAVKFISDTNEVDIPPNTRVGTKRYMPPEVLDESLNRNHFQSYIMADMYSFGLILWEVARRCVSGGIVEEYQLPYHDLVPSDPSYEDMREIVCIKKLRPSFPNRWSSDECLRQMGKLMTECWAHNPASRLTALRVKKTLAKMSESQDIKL

| Structure (SMILES) | inhibitory activity against BMPR1B kinase (BMPR1B kinase) | inhibition of kinase activity of BMPR2 (BMPR2; [2]) | inhibition of BMPR2 kinase (BMPR2; [3]) | inhibition of kinase activity of TGFBR1 (TGFBR1; [2]) | inhibition of TGFBR1 kinase (TGFBR1; [3]) | phosphorylation of SMAD2/3 (SMAD2/3) | phosphorylation levels of SMAD1/5/8 (SMAD1/5/8) | neural progenitor marker PAX6 expression (pluripotent stem cell H9) | pluripotency marker NANOG expression (pluripotent stem cell H9) | glial progenitor marker gene Sox9 expression (H1 cells) | neural marker gene MAP2 expression (H1 cells) | neural differentiation marker VIM expression [1] | neural progenitor marker Sox1 expression [1] | neural progenitor marker Sox5 expression [1] |
| --- | --- | --- | --- | --- | --- | --- | --- | --- | --- | --- | --- | --- | --- | --- |
| O=C1CN(C(=O)c2n[nH]c3c2CCC3)[C@H]2CCCC[C@@H]2N1 [II-1, (4aS,8aS)-4-(1,4,5,6-tetrahydrocyclopenta[c]pyrazole-3-carbonyl)octahydroquinoxalin-2(1H)-one] | significant inhibitory activity | did not inhibit | no inhibition | did not inhibit | no inhibition | did not inhibit | significantly suppressed | corresponding increase | dose-dependent decrease |  |  |  |  |  |
| O=C1CN(C(=O)c2n[nH]c3ccccc23)[C@H]2CCCC[C@@H]2N1 [II-13, (4aS,8aS)-4-(1H-indazole-3-carbonyl)octahydroquinoxalin-2(1H)-one] |  |  |  |  |  |  |  |  |  | dose-dependent response | dose-dependent response | significantly increased expression | significantly increased expression | significantly increased expression |
